This is an account of results in patent US20120058972A1, “NOVEL USE” (priority 2009, published 2012).

In test [1] the test system is Dextran Sulphate Sodium Induced Colitis Mouse Model. The test is described as follows: Dextran sulphate sodium induced colitis mouse model, IL-6 and MIP-2 in colon tissue homogenates (ELISA). Type of test: in vivo, C57BL/6 mice. To be noted: 3.5% DSS in drinking water 5 days. From the text: Two groups (n=24 each) of adult C57BL/6 mice (Jackson Laboratories, Bar Harbour, Me., USA), conventionally raised (CR) and bacteria-depleted (BD) mice, were used to induce colitis. All animals were housed within a 12-h light/dark cycle and had access to mouse chow and water ad libitum.
At 6 weeks of age, conventionally colonised mice were housed under conventional conditions with untreated water (CR group) whilst mice in the BD group were fed an antibiotic cocktail in their drinking water for 2 weeks. Kanamycin (8 mg/ml), Gentamicin (0.7 mg/ml), Colistin (34,000 U/ml), Metronidazole (4.3 mg/ml) and Vanacomycin (0.9 mg/ml) comprised the antibiotic cocktail. Concentrations of antibiotics in the water were calculated based on the average water consumed by age group.
At 8 weeks of age, intestinal colitis was induced by feeding 3.5% DSS (Dextran Sulphate Sodium) (MP Biomedicals, Aurora, Ohio, USA) in drinking water for 5 days in all mice of both groups (CR and BD). At 10 weeks of age, half the mice of each group started receiving Bimuno (5 g/L) for 7 days. At the end of week 10, the animals were euthanized and their colons were harvested for analysis.
Murine IL-6 and MIP-2 cytokines were analysed by ELISA (Quantikine, R&D Systems, Minn., USA) on colon tissue homogenates according to manufacturer's instructions. Briefly, the proximal colons for each group were collected and homogenised with PBS homogenising buffer containing 1% Triton X-100 supplemented with a cocktail of protease inhibitors. The homogenised solutions were centrifuged at 12,000 rpm for 10 min, and the supernatants were separated into aliquots and stored at −70° C.
For orientation: In an ELISA, binding on a coated surface is turned into a signal by an enzyme label.

In test [2] the test system is NCM-460 cells. The test is described as follows: Effect of B-GOS on IL-8 and MIP-3α secretion in NCM-460 cells (ELISA). Format: cell-based, human. The conditions noted are these: TNF-α 10 ng/mL, vs untreated, p<0.001. On the procedure:
(§1) Intestinal epithelial cells were grown to confluence in 24-well plates from an initial concentration of 5×10^5 cells/mL. When the cells reached 70% confluence, they were treated in quadruplicate as follows: (i) negative control, (ii) TNF-α (10 ng/mL) positive control, (iii) B-GOS (5 g/L) and (iv) TNF-α (10 ng/mL) with B-GOS (5 g/L). A concentration of 5 g/L of oligosaccharides was used since this is the physiological concentration of oligosaccharides found in human milk. After 16 hours, supernatants were collected and stored at −20° C. for IL-8 and MIP-3α secretion to be determined later by ELISA. In following experiments, TNF-α was replaced by IL1β or flagellin.
Quantitation of IL-8. The IL-8 concentration was measured by ELISA as described previously (Claud E C, Savidge T, Walker W A 2003 Modulation of human intestinal epithelial cell IL-8 secretion by human milk factors. Pediatr Res 53:419-425). […] The reaction was stopped with 100 μL 2N H2SO4 and the absorbance was read at 490 nm. The concentration of IL-8 in the samples was calculated from the IL-8 standard curve.
Quantitation of MIP-3α. The amount of MIP-3α secretion was measured by ELISA similar to IL-8, except that the plate was coated overnight with 100 μL 2.0 μg/mL mouse anti-human MIP-3α monoclonal antibody. […] The concentration of MIP-3α in the samples was calculated from the MIP-3α standard curve. […]

The test system of test [3] is NCM-460 cells. The test is described as follows: Effect of B-GOS on induction of cytokine transcription (qRT-PCR of IL-8, MIP-3α, MCP-1 mRNA). Format: cell-based, human. To be noted: TNF-α 10 ng/mL, 18 hours, p<0.001. On the procedure: Effect of B-GOS on induction of cytokine transcription. NCM-460 cells were grown to confluence in 6-well plates from an initial concentration of 5×10^5 cells/mL. When the cells reached 70% confluence, they were treated as follows in quadruplicate: (i) negative control, (ii) TNF-α or IL1β or flagellin (10 ng/mL) positive control, and (iii) TNF-α or IL1β or flagellin (10 ng/mL) with B-GOS (5 g/L). After 18 hours, total cellular RNA was isolated by Trizol-chloroform extraction. Using the SuperScript III Platinum SYBR Green One-Step qRT-PCR kit, the mRNA expression of IL-8, MIP-3α and MCP-1 was measured on a MJ Opticon 2 and standardized to mRNA expression of GAPDH.
Statistical analysis. Induction of cytokines was standardized to the positive control with error bars representing standard error (SE). Comparisons between groups were performed using a two-tailed Student's t test. Gene expression data obtained by qRT-PCR was expressed as the mean with SE. Comparisons between groups were performed using a Student's two-tailed t test after logarithmic transformation. A p value <0.05 was considered statistically significant and indicated by an asterisk (*), a p value <0.01 was indicated by two asterisks (**) and a p value <0.001 was indicated by three asterisks (***).

Another test relates to NF-κB p65 protein. The test is described as follows: Effect of B-GOS on NF-κB translocation (immunofluorescence). Type of test: cell-based, human. The conditions noted are these: NCM-460 cells, TNF-α 10 ng/mL alone, 30 minutes. On the procedure:
Effect of B-GOS on NF-KB translocation. NCM-460 cells were grown to 70% confluency on cover slips and treated in duplicate for 10 or 30 minutes as follows: (i) negative control, (ii) TNF-α (10 ng/mL) positive control, and (iii) TNF-α (10 ng/mL) with B-GOS (5 g/L). The medium was removed and the cells were fixed in 4% paraformaldehyde. After permeabilization with methanol and blocking with 10% goat serum in 0.25% BSA in TBS, the cells were probed with rabbit anti-human NF-κB p65 polyclonal antibody. After washing, the cells were incubated with CyTM 3-conjugated goat anti-rabbit antibody. The cover slips were then washed and mounted on a glass slide to be visualized under the microscope (Nikon Eclipse TE2000-S).

The next test concerns T84 cells. The test is described as follows: Effect of B-GOS on TNF-α induced IL-8 secretion in T84 cells (ELISA). Type of test: cell-based, human. The conditions noted are these: TNF-α 10 ng/mL, vs untreated, p<0.001. On the procedure:
as §1
Quantitation of IL-8. The IL-8 concentration was measured by ELISA as described previously (Claud E C, Savidge T, Walker W A 2003 Modulation of human intestinal epithelial cell IL-8 secretion by human milk factors. Pediatr Res 53:419-425). […] The reaction was stopped with 100 μL 2N H2SO4 and the absorbance was read at 490 nm. The concentration of IL-8 in the samples was calculated from the IL-8 standard curve. […]
Statistical analysis. […] Gene expression data obtained by qRT-PCR was expressed as the mean with SE. […]

As for Dextran Sulphate Sodium [DSS], the “induction of IL-6 secretion by DSS” value was 6.2 fold in test [1] (BD mice, p<0.0001) and 2.2 fold in test [1] (conventional mice, p<0.0001). The “induction of MIP-2 secretion by DSS” value in test [1] (BD mice, p=0.0005) stood at 27.2 fold; in test [1] (conventional mice, p<0.0001) it was 8.3 fold.

Regarding TNF-α, in the test on NCM-460 cells [2], the “increase of IL-8 secretion upon TNF-α stimulation” value is 58.8 fold and the “increase of MIP-3α secretion upon TNF-α stimulation” value is listed as 25.0 fold. Moreover, in the test on NCM-460 cells [3], the “increase of IL-8 mRNA expression upon TNF-α stimulation” value is given as 12.2 fold and the “increase of MIP-3α mRNA expression upon TNF-α stimulation” value worked out at 99.4 fold. Further, in the test on NF-κB p65 protein, the “nuclear translocation of NF-κB p65 upon TNF-α stimulation” value is given as “clearly translocated into the nuclei”. For the same substance, the “increase of IL-8 secretion upon TNF-α stimulation” value with T84 cells came to 4.9 fold.
